Test system: Pseudomonas putida (ATCC 31483)
Assay: Bacterial growth in growth medium containing ceftazidime hydrate (96-well plate, turbidity)
Assay type: cell-based
Set-up: key to bacterial growth (turbidity): “+” indicates growth; “−” indicates no growth
Details: overnight at 37° C.
Description: Samples of growth media were prepared by dissolving a tablet of each composition in 1 liter of recovery media (modified Listeria Recovery Broth (MLRB), available from 3M Company; St. Paul, Minn.). The tablets dissolved within 4.5 minutes. A sample of growth media was prepared as a control by dissolving 10 mg of Ceftazidime hydrate powder (product number C3809-5G available from Sigma Aldrich; St. Louis, Mo.) in 1 liter of MLRB.
A bacterial suspension was prepared by inoculating a pure culture of Pseudomonas putida (ATCC 31483 obtained from ATCC, Manassas, Va.) into tryptic soy broth (BD™ Tryptic Soy Broth; Becton Dickinson; Sparks, Md.) and incubating at 37° C. The suspension was diluted 1:1,000 in SMB (Standard Methods Buffer; 3M Company; St. Paul, Minn.). The diluted suspension was further diluted 1:10,000-diluted in SMB growth medium containing ceftazidime concentrations shown in Table 10. Four duplicates of each sample were pipetted into a 96-well plate as follows: Growth Control with no Ceftazidime hydrate; an Undiluted Control with 10 micrograms Ceftazidime hydrate/microliter of the bacterial suspension; and each dilution of inoculated medium containing the concentration of ceftazidime hydrate shown in the Table 10. The 96-well plate was incubated overnight at 37° C. and examined visually for bacterial growth. Turbidity in the well indicated growth.

CC(C)(O/N=C(\C(=O)N[C@@H]1C(=O)N2C(C(=O)[O-])=C(C[n+]3ccccc3)CS[C@H]12)c1csc(N)n1)C(=O)O [Powder Control, Ceftazidime hydrate]
bacterial growth (turbidity) (2.5 mcg CDH/microliter): +
bacterial growth (turbidity) (3.75 mcg CDH/microliter): +
bacterial growth (turbidity) (5.0 mcg CDH/microliter): −
bacterial growth (turbidity) (6.25 mcg CDH/microliter): −
bacterial growth (turbidity) (7.5 mcg CDH/microliter): −
bacterial growth (turbidity) (8.75 mcg CDH/microliter): −
bacterial growth (turbidity) (Undiluted Control - 10 mcg CDH/microliter): −
lowest concentration of ceftazidime hydrate showing no growth (delivered in tablet or powder): 5 mcg/microliter of sample

Reference: patent US10378041B2, “Effervescent compositions and uses thereof” (3M INNOVATIVE PROPERTIES COMPANY, priority 2010, dated 2019)
